Data reported in patent publication US7462622B2, “Pyrrolo[2, 3-d] pyrimidine derivatives as corticotropin releasing factor antagonists” (Glaxo Group Limited, priority 2001, dated 2008).

System: recombinant human CRF receptors
Assay: CRF receptors-binding assay by scintillation proximity (SPA), displacement of 125I-oCRF (CRF1) / 125I-Sauvagine (CRF2)
Conditions: qualitative statement; assay not specified
Procedure: The CRF receptors-binding assay was performed by using the homogeneous technique of scintillation proximity (SPA). The ligand binds to recombinant membrane preparation expressing the CRF receptors which in turn bind to wheat germ agglutinin coated SPA beads. In the Experimental Part will be disclosed the details of the experiments.
CRF binding affinity has been determined in vitro by the compounds' ability to displace ^125I-oCRF and ^125I-Sauvagine for CRF1 and CRF2 SPA, respectively, from recombinant human CRF receptors expressed in Chinese Hamster Ovary (CHO) cell membranes. For membrane preparation, CHO cells from confluent T-flasks were collected in SPA buffer (HEPES/KOH 50 mM, EDTA 2 mM; MgCl2 10 mM, pH 7.4.) in 50 mL centrifuge tubes, homogenized with a Polytron and centrifuged (50,000 g for 5 min at 4° C.: Beckman centrifuge with JA20 rotor). The pellet was resuspended, homogenized and centrifuged as before.
The SPA experiment has been carried out in Optiplate by the addition of 100 μL the reagent mixture to 1 μL of compound dilution (100% DMSO solution) per well. […]
The plate was incubated overnight (>18 hrs) at room temperature and read with the Packard Topcount with a WGA-SPA ^125I counting protocol.

activity: good activity
SMILES: CCC(COC)Oc1nc(C)nc2c1CCN2c1ccc(C(F)(F)F)cc1C(F)(F)F (stereo not shown) [Compound 1-12, 7-(2,4-bis-trifluoromethyl-phenyl)-4-(1-methoxymethyl-propoxy)-2-methyl-6,7-dihydro-5H-pyrrolo[2,3-d]pyrimidine]
